Experimental data from patent publication US20240034736A1, “HSD17B13 INHIBITORS AND USES THEREOF” (FL2022-001, Inc., priority 2020, published 2024).

The compounds below were run against Recombinant human HSD17B13 enzyme (Homo sapiens (Human), UniProt Q7Z5P4) (assay: HSD17b13 NAD(P)H-Glo Biochemical Assay). Conditions: 50 uM estradiol, 1 mM NAD+; read-out: HSD17β13 IC50.
Sequence of Recombinant human HSD17B13 enzyme (Q7Z5P4 20-300): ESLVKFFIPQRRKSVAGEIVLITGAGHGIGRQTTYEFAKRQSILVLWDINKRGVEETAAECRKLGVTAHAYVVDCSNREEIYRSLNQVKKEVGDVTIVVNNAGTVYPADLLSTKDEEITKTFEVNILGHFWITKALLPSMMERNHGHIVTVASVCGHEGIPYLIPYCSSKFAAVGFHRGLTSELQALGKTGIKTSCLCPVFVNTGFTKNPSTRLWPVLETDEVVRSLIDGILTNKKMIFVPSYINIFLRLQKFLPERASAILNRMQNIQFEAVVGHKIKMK
Method in brief: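 Luminescent NAD(P)H-Glo detection (1 h, RT) quantified cofactor reduction after a 3 h, 37° C reaction of human HSD17B13 with estradiol (50 uM final) and NAD+ (1 mM final). Compounds were first pre-incubated 20 min at RT with enzyme in Tris pH 7.4 buffer containing Tween-20 and BSA.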
With `Oc1cc(-n2ncc3nc(-c4ccc(O)c(Cl)c4)ccc32)ccc1F` [Compound 8.03, 2-Chloro-4-(1-(4-fluoro-3-hydroxyphenyl)-1H-pyrazolo[4,3-b]pyridine-5-yl)phenol] the IC50 was 1000 to 30000 nM. In the case of `Cc1nn(-c2cc(O)c(F)c(C(F)(F)F)c2)c2cnc(N3CCOCC34CC4)cc12` [Compound 19.85, 2-Fluoro-5-(3-methyl-5-(7-oxa-4-azaspiro[2.5]octan-4-yl)-1H-pyrazolo[3,4-c]pyridin-1-yl)-3-(trifluoromethyl)phenol], the IC50 is reported as less than 100 nM. `N#Cc1cc(O)ccc1-c1ccc2c(cnn2-c2ccc(F)c(O)c2)c1` [Compound 5.07, 2-(1-(4-Fluoro-3-hydroxyphenyl)-1H-indazol-5-yl)-5-hydroxybenzonitrile] showed an IC50 of 100 to 1000 nM. For `CNC(=O)c1ccc(-c2ccc3c(cnn3-c3ccc(F)c(O)c3)c2)c(Cl)c1` [Compound 5.26, 3-Chloro-4-(1-(4-fluoro-3-hydroxyphenyl)-1H-indazol-5-yl)-N-methylbenzamide], the IC50 was 100 to 1000 nM. Compound `Cc1nn(-c2cc(C(F)(F)F)c(F)c(O)c2F)c2ccc(N(C)C3CCOCC3)nc12` [Compound 19.49, 2,6-Difluoro-3-(3-methyl-5-(methyl(tetrahydro-2H-pyran-4-yl)amino)-1H-pyrazolo[4,3-b]pyridine-1-yl)-5-(trifluoromethyl)phenol] has an IC50 of less than 100 nM. `O=S(=O)(c1ccc2c(cnn2-c2cc(O)c(F)c(F)c2)c1)N1CCOCC1` [Compound 30.01, 2,3-Difluoro-5-(5-(morpholinosulfonyl)-1H-indazol-1-yl)phenol] was tested, and the IC50 was 100 to 1000 nM. `Oc1cc(-n2ncc3cc(N4CCCCC4)ncc32)cc(C(F)(F)F)c1F` [Compound 21.42, 2-Fluoro-5-(5-(piperidin-1-yl)-1H-pyrazolo[3,4-c]pyridine-1-yl)-3-(trifluoromethyl)phenol] gave an IC50 of 100 to 1000 nM. For `CS(=O)(=O)N1CCN(c2cc3cn(-c4ccc(C(F)(F)F)c(O)c4F)nc3cn2)CC1` [Compound 19.26, 2-Fluoro-3-(5-(4-(methylsulfonyl)piperazin-1-yl)-2H-pyrazolo[3,4-c]pyridine-2-yl)-6-(trifluoromethyl)phenol], the IC50 was 1000 to 30000 nM. With `Cc1nn(-c2cc(C(F)(F)F)c(F)c(O)c2F)c2ccc(N(C)C3CCOCC3)cc12` [Compound 19.69, 2,6-Difluoro-3-(3-methyl-5-(methyl(tetrahydro-2H-pyran-4-yl)amino)-1H-indazol-1-yl)-5-(trifluoromethyl)phenol] the IC50 was less than 100 nM. With `Oc1cncc(-c2ccc3c(cnn3-c3cc(O)c(F)c(F)c3)c2)c1` [Compound 7.03, 5-(1-(3,4-Difluoro-5-hydroxyphenyl)-1H-indazol-5-yl)pyridine-3-ol] the IC50 was 100 to 1000 nM. For `CS(=O)(=O)N1CCN(c2cc3cnn(-c4cc(O)c(F)c(F)c4)c3cc2C#N)CC1` [Compound 21.23, 1-(3,4-Difluoro-5-hydroxy-phenyl)-5-(4-(methylsulfonyl)-piperazin-1-yl)-1H-indazole-6-carbonitrile], the IC50 was 100 to 1000 nM. In the case of `Cc1nn(-c2cc(C(F)(F)F)c(F)c(O)c2F)c2cnc(N3CCNCC3)nc12` [Compound 19.118, 2,6-Difluoro-3-(3-methyl-5-(piperazin-1-yl)-1H-pyrazolo[4,3-d]pyrimidin-1-yl)-5-(trifluoromethyl)phenol], the IC50 is reported as 1000 to 30000 nM. `CC1(C)CN(c2ccc3c(cnn3-c3cc(O)c(F)c(F)c3)c2)CCN1S(C)(=O)=O` [Compound 21.29, 5-(5-(3,3-Dimethyl-4-(methyl-sulfonyl)piperazin-1-yl)-1H-indazol-1-yl)-2,3-difluoro-phenol] gave an IC50 of 100 to 1000 nM. With `CS(=O)(=O)N1CCN(c2cc3cnn(-c4ncc(Cl)c(O)c4F)c3cn2)CC1` [Compound 19.31, 5-Chloro-3-fluoro-2-(5-(4-(methylsulfonyl)piperazin-1-yl)-1H-pyrazolo[3,4-c]pyridine-1-yl)pyridine-4-ol] the IC50 was 1000 to 30000 nM. With `COCCOC1CCN(c2cc3c(C)nn(-c4cc(C(F)(F)F)c(F)c(O)c4F)c3cn2)CC1` [Compound 19.58, 2,6-Difluoro-3-(5-(4-(2-methoxyethoxy)piperidin-1-yl)-3-methyl-1H-pyrazolo[3,4-c]pyridin-1-yl)-5-(trifluoromethyl)phenol] the IC50 was less than 100 nM. `CS(=O)(=O)c1ccc(-c2ccc3c(cnn3-c3ccc(F)c(O)c3)c2)cc1` [Compound 5.05, 2-Fluoro-5-(5-(4-(methylsulfonyl)phenyl)-1H-indazol-1-yl)phenol] gave an IC50 of 100 to 1000 nM. Compound `CS(=O)(=O)N1CCN(c2cc3cnn(-c4cc(O)cc(C(F)(F)F)c4)c3cn2)CC1` [Compound 19.16, 3-(5-(4-(Methylsulfonyl)piperazin-1-yl)-1H-pyrazolo[3,4-c]pyridine-1-yl)-5-(trifluoromethyl)phenol] has an IC50 of 1000 to 30000 nM. Work on `CS(=O)(=O)N1CCC(CO)(c2ccc3c(cnn3-c3cc(O)c(F)c(F)c3)c2)CC1` [Compound 28.01] yielded an IC50 of 1000 to 30000 nM. `CS(=O)(=O)N1CCN(c2cc3cnn(-c4ccc(Cl)c(O)c4F)c3cc2F)CC1` [Compound 19.03, 6-Chloro-2-fluoro-3-(6-fluoro-5-(4-(methylsulfonyl)piperazin-1-yl)-1H-indazol-1-yl)phenol] was tested, and the IC50 was 100 to 1000 nM. Compound `CC(=O)N1CC(Oc2ccc3c(cnn3-c3cc(O)c(F)c(F)c3)c2)C1` [Compound 24.01, 1-(3-((1-(3,4-Difluoro-5-hydroxyphenyl)-1H-indazol-5-yl)oxy)azetidin-1-yl)ethan-1-one] has an IC50 of 100 to 1000 nM. `O=C(O)c1ccc(-c2ccc3c(cnn3-c3ccc(F)c(O)c3)c2)c(Cl)c1` [Compound 12, 3-Chloro-4-(1-(4-Fluoro-3-hydroxyphenyl)-1H-indazol-5-yl)benzoic acid] was tested, and the IC50 was 1000 to 30000 nM. In the case of `Cc1nn(-c2cc(C(F)(F)F)c(F)c(O)c2F)c2cnc(N3CCO[C@@H](c4ccccc4)C3)cc12` [Compound 19.109, (S)-2,6-Difluoro-3-(3-methyl-5-(2-phenylmorpholino)-1H-pyrazolo[3,4-c]pyridin-1-yl)-5-(trifluoromethyl)phenol], the IC50 is reported as 100 to 1000 nM. `Cc1nn(-c2cc(O)c(F)c(NC(=O)C(F)(F)F)c2)c2cnc(N3CCOCC34CC4)cc12` [Compound 19.92, 2,2,2-Trifluoro-N-(2-fluoro-3-hydroxy-5-(3-methyl-5-(7-oxa-4-azaspiro[2.5]octan-4-yl)-1H-pyrazolo[3,4-c]pyridin-1-yl)phenyl)acetamide] showed an IC50 of 1000 to 30000 nM. For `O=S(=O)(c1ccccc1)N1CCN(c2ccc3c(cnn3-c3cc(O)c(F)c(F)c3)c2)CC1` [Compound 21.09, 2,3-Difluoro-5-(5-(4-(phenyl-sulfonyl)piperazin-1-yl)-1H-indazol-1-yl)phenol], the IC50 was 100 to 1000 nM. `Cc1nn(-c2cc(C(F)(F)F)c(F)c(O)c2F)c2cnc(N3CCN(S(=O)(=O)c4ccccc4)CC3)cc12` [Compound 19.56, 2,6-Difluoro-3-(3-methyl-5-(4-(phenylsulfonyl)piperazin-1-yl)-1H-pyrazolo[3,4-c]pyridine-1-yl)-5-(trifluoromethyl)phenol] gave an IC50 of less than 100 nM. `COC1CCN(c2cc3cnn(-c4cc(O)c(F)c(F)c4)c3cc2Cl)CC1` [Compound 21.21, 5-(6-Chloro-5-(4-methoxy-piperidin-1-yl)-1H-indazol-1-yl)-2,3-difluorophenol] gave an IC50 of 100 to 1000 nM.

Same assay, conditions: read-out: HSD17β13 inhibition at 30 uM
For `CS(=O)(=O)N1CCN(c2cc3cnn(-c4cc(O)cc(C#N)c4)c3cn2)CC1` [Compound 19.123, 3-Hydroxy-5-(5-(4-(methylsulfonyl)piperazin-1-yl)-1H-pyrazolo[3,4-c]pyridin-1-yl)benzonitrile], the inhibition at 30 µM was 30%.
